These results are taken from ChEMBL document CHEMBL2046434, “Morita-Baylis-Hillman adducts: biological activities and potentialities to the discovery of new cheaper drugs” (Bioorg Med Chem, 2012).

In general, IC50 refers to the concentration needed to halve the response being measured. A low value points to inhibition by little substance. A word on the zone of inhibition: it is the size of the clear area around the sample on an inoculated plate.

The first assay relates to HeLa. The assay is described as follows: Growth inhibition of human HeLa cells at 5 uM. The format is functional. The conditions noted are these: read-out: GI.
On to `Cc1ccc(S(=O)(=O)NC(/C(=C/c2ccco2)[N+](=O)[O-])c2ccco2)cc1` (stereo unspecified), for which the inhibition of growth at 5 µM was found to be 32%. For `CC(=O)CC/C(=C/c1ccccc1)[N+](=O)[O-]`, the inhibition of growth at 5 µM was greater than 70%. With `Cc1ccc(S(=O)(=O)NC(/C(=C/c2cccs2)[N+](=O)[O-])c2ccco2)cc1` (stereo unspecified), the inhibition of growth at 5 µM stood at 28%.

On to `Cc1ccc(S(=O)(=O)NC(/C(=C/c2cccs2)[N+](=O)[O-])c2ccccc2)cc1` (stereo unspecified), for which the inhibition of growth at 5 µM came to 49%. As to `COc1ccc(/C=C(/C(NS(=O)(=O)c2ccc(C)cc2)c2ccccc2)[N+](=O)[O-])cc1` (stereo unspecified), the inhibition of growth at 5 µM turned out to be 23%. In the case of `CC(=O)CC/C(=C/c1ccc(Cl)cc1)[N+](=O)[O-]`, the inhibition of growth at 5 µM is greater than 70%. As for `Cc1ccc(S(=O)(=O)NC(/C(=C/c2ccoc2)[N+](=O)[O-])c2ccccc2)cc1` (stereo unspecified), the inhibition of growth at 5 µM amounted to 28%. As for `Cc1ccc(S(=O)(=O)NC(/C(=C/c2ccc3c(c2)OCO3)[N+](=O)[O-])c2ccccc2)cc1` (stereo unspecified), the inhibition of growth at 5 µM came out at 29%.

For `Cc1ccc(S(=O)(=O)NC(/C(=C/c2ccco2)[N+](=O)[O-])c2ccccc2)cc1` (stereo unspecified), the inhibition of growth at 5 µM was 44%.

With `COc1ccc(/C=C(/CCC(C)=O)[N+](=O)[O-])cc1`, the inhibition of growth at 5 µM was greater than 70%.

For the compound `Cc1ccc(S(=O)(=O)NC(/C(=C/c2ccoc2)[N+](=O)[O-])c2ccco2)cc1` (stereo unspecified), the inhibition of growth at 5 µM came to 33%.

For `COc1ccc(/C=C(/C(NS(=O)(=O)c2ccc(C)cc2)c2ccccc2)[N+](=O)[O-])cc1OC` (stereo unspecified), the inhibition of growth at 5 µM came to 35%. `Cc1ccc(S(=O)(=O)NC(/C(=C/c2ccsc2)[N+](=O)[O-])c2ccccc2)cc1` (stereo unspecified): the inhibition of growth at 5 µM turned out to be 45%.

The subject of a further assay is Trypanosoma cruzi. The assay is described as follows: Antitrypanosomal activity against Trypanosoma cruzi epimastigotes. The format is functional, organism-based.
Details: not given
Take `C=C(C#N)C(O)c1ccc([N+](=O)[O-])cc1` (stereo unspecified): the IC50 is 28.5 µM.

For another assay, the system named is Trypanosoma cruzi. The assay is described as follows: Antitrypanosomal activity against Trypanosoma cruzi trypomastigotes. The format is functional, organism-based.
Details: not given
In the case of `C=C(C#N)C(O)c1ccc([N+](=O)[O-])cc1` (stereo unspecified), the IC50 worked out at 25.5 µM.

The subject of the next assay is Leishmania amazonensis. As to the kind of experiment: Antileishmanial activity against Leishmania amazonensis promastigotes.
Details: not given
The format is functional, organism-based.
Compound `C=C(C(=O)OC)C(O)c1ccc([N+](=O)[O-])cc1` (stereo unspecified) came in with an IC50 of 196 µM.

Turning to `C=C(C(=O)OC)C(O)c1cccc([N+](=O)[O-])c1` (stereo unspecified), the IC50 amounted to 452 µM. Compared with the last compound, the IC50 is about 2.3-fold higher. `C=C(C(=O)OC)C(O)c1ccccc1[N+](=O)[O-]` (stereo unspecified) returned an IC50 of 50.1 µM.

For a further assay, the system named is Aspergillus niger. The assay is described as follows: Antimicrobial activity against Aspergillus niger.
Details: not given
Format: functional.
Compound `C=C(C#N)C(O)c1ccc([N+](=O)[O-])cc1` (stereo unspecified) gave a zone of inhibition of 12 mm. `C=C(C#N)C(O)c1cccc([N+](=O)[O-])c1` (stereo unspecified) had a zone of inhibition of 14 mm. In the case of `C=C(C(=O)OCC)C(O)c1ccccc1Cl` (stereo unspecified), the zone of inhibition is 14 mm. Same read-out and setting: next, `C=C(C(=O)OCC)C(O)c1ccc(Cl)cc1Cl` (stereo unspecified): 11 mm; `C=C(C#N)C(O)c1ccc(Cl)cc1` (stereo unspecified): 12 mm. With `C=C(C(=O)OCC)C(O)c1ccc(F)cc1` (stereo unspecified), the zone of inhibition worked out at 14 mm.

Consider `C=C(C#N)C(O)c1ccc(Cl)cc1Cl` (stereo unspecified), for which the zone of inhibition was determined as 13 mm. `C=C(C#N)C(O)c1ccccc1Cl` (stereo unspecified) yielded a zone of inhibition of 14 mm. In the case of `C=C(C(=O)OCC)C(O)c1cccc([N+](=O)[O-])c1` (stereo unspecified), the zone of inhibition is 13 mm. Still for that read-out and setting: next, `C=C(C(=O)OCC)C(O)c1ccc(Cl)cc1` (stereo unspecified): 11 mm.

Compound `C=C(C(=O)CC)C(O)c1ccc(Cl)cc1` (stereo unspecified) returned a zone of inhibition of 13 mm. Take `C=C(C(=O)OC)C(O)c1ccccc1[N+](=O)[O-]` (stereo unspecified): the zone of inhibition worked out at 11 mm. Same read-out and setting: the result for `C=C(C#N)C(O)c1ccccc1[N+](=O)[O-]` (stereo unspecified) reads 11 mm. On to `C=C(C#N)C(O)c1ccccc1OC` (stereo unspecified), for which the zone of inhibition turned out to be 12 mm. On the same count and under the same terms, the result for `C=C(C#N)C(O)c1ccc(F)cc1` (stereo unspecified) reads 11 mm; that for `C=C(C(=O)OCC)C(O)c1ccc([N+](=O)[O-])cc1` (stereo unspecified), 12 mm.

The next assay has as its system Candida albicans. As to the kind of experiment: Antimicrobial activity against Candida albicans. The format is functional.
Details: not given
Compound `C=C(C#N)C(O)c1ccc([N+](=O)[O-])cc1` (stereo unspecified) showed a zone of inhibition of 12 mm.

In turn, `C=C(C(=O)OC)C(O)c1ccc([N+](=O)[O-])cc1` (stereo unspecified) yielded a zone of inhibition of 13 mm. In turn, `C=C(C#N)C(O)c1cccc([N+](=O)[O-])c1` (stereo unspecified) returned a zone of inhibition of 10 mm. Compound `C=C(C(=O)OCC)C(O)c1ccccc1OC` (stereo unspecified) displayed a zone of inhibition of 12 mm. The compound `C=C(C(=O)OCC)C(O)c1ccccc1Cl` (stereo unspecified) came in with a zone of inhibition of 13 mm. Same read-out and setting: next, `C=C(C(=O)OCC)C(O)c1ccc(Cl)cc1Cl` (stereo unspecified): 15 mm; `C=C(C#N)C(O)c1ccc(Cl)cc1` (stereo unspecified): 13 mm; `C=C(C(=O)OCC)C(O)c1ccc(F)cc1` (stereo unspecified): 15 mm. `C=C(C#N)C(O)c1ccc(Cl)cc1Cl` (stereo unspecified) registered a zone of inhibition of 11 mm.

Compound `C=C(C#N)C(O)c1ccccc1Cl` (stereo unspecified) yielded a zone of inhibition of 13 mm. As for `C=C(C(=O)OCC)C(O)c1cccc([N+](=O)[O-])c1` (stereo unspecified), the zone of inhibition came to 14 mm. On to `C=C(C(=O)OCC)C(O)c1ccc(Cl)cc1` (stereo unspecified), for which the zone of inhibition turned out to be 12 mm. Same read-out and setting: the result for `C=C(C(=O)CC)C(O)c1ccc(Cl)cc1` (stereo unspecified) reads 12 mm; that for `C=C(C(=O)OC)C(O)c1ccccc1[N+](=O)[O-]` (stereo unspecified), 12 mm. The same measure, in the same setting: next, `C=C(C#N)C(O)c1ccccc1[N+](=O)[O-]` (stereo unspecified): 13 mm; `C=C(C#N)C(O)c1ccc(F)cc1` (stereo unspecified): 13 mm. `C=C(C(=O)OCC)C(O)c1ccc([N+](=O)[O-])cc1` (stereo unspecified): the zone of inhibition worked out at 11 mm.
